Source: patent US20120277211A1, “METHODS AND COMPOSITIONS FOR THE TREATMENT OF PSYCHOTIC DISORDERS THROUGH THE IDENTIFICATION OF THE SULT4A1-1 HAPLOTYPE” (priority 2009, published 2012)
Read-outs that look alike come from different tables or passages of the source. Marks after values point to notes of the source that are not given here.

What was measured:
[1] = system: Caucasian schizophrenia patients; test: CATIE: time to discontinuation for all causes by SULT4A1-1 status; assay type: in vivo, human; conditions: SULT4A1-1 negative
Excerpt: The primary endpoint for the CATIE study was time to discontinuation for all causes (Lieberman et al., 2005). Thus the inventors evaluated the effect of SULT41-1 status on this important parameter.

[2] = system: Caucasian schizophrenia patients; test: CATIE: hospitalization due to exacerbation of psychosis by SULT4A1-1 status; assay type: in vivo, human
Excerpt: To assess if SULT4A1-1 status impacts the risk of hospitalization in Caucasians, the inventors assigned SULT4A1-1 status to each CATIE subject and evaluated hospitalization events due to exacerbation of psychosis. For this analysis, the inventors assigned a dichotomous value (positive or negative) for hospitalization status to subjects in each phase of the trial based on only the first hospitalization event for a given patient in that phase. Patients participating in Phases 1, 2, and/or 3 were included in the totals for the appropriate drug.
A Kaplan-Meier survival analysis was performed to determine whether there was a difference between the survival (hospitalization) rates for the SULT4A1-1 negative and SULT4A1-1 positive patient populations treated with each of the atypical antipsychotics. Survival plots model the fraction of the population that survived (i.e., no hospitalization event) as a function of time.

schizophrenia patients [3] = conditions: published CATIE results (Lieberman et al. 2005); cited from earlier work
schizophrenia patients [4] = conditions: Phase II; for Responders: decrease PANSS ≧20%, LOCF
[5] = system: African American schizophrenia patients; test: CATIE: change in total PANSS (LOCF) by SULT4A1-1 haplotype status, African Americans; assay type: in vivo, human; conditions: for Number of individuals with change in total PANSS ≦−20% (responders) / Number of individuals with change in total PANSS ≧−20% (non-responders): LOCF
Method: The design of the CATIE study has been described in detail by others (Lieberman et al., 2005; Stroup et al., 2003). […] A total of 738 subjects consented to provide DNA for genetic study. […] Retrospective genetic analyses, judged to be exempt from human studies requirements by an IRB, were conducted in the current study. All tested patients were studied using well established clinical endpoints comparing baseline, intermediate, and last observation carried forward (LOCF) for the PANSS scores using CATIE data. […] To remove time on drug as a variable for the CATIE trial, analysis was limited to only those patients who were randomized to a different drug following the initial washout period (drug switchers).

schizophrenia patients [6] = test: CATIE: months of successful treatment measured by the CGI scale (TMSUCC1); assay type: in vivo, human
Excerpt: The CATIE clinical data set included Clinical Global Impression (CGI) Scale, an observer-provided assessment of the psychiatric health of the patient (Stroup et al., 2003; Guy 1976). Patients are rated with the CGI Scale from 1 to 7, with higher scores indicating greater severity of illness. The CATIE study provided a response variable that measured the time (in months) of successful treatment as measured by the CGI scale (“TMSUCC1” in the CATIE data).

Cc1cc2c(s1)Nc1ccccc1N=C2N1CCN(C)CC1 [Olanzapine]
Time to discontinuation, mean [1]: 10.0** Months | HOSP, number of patients hospitalized ([2]; SULT4A1-1 negative): 22 | HOSP, number of patients hospitalized ([2]; SULT4A1-1 positive): 1 | HOSP, rate of hospitalization ([2]; SULT4A1-1 positive): 2.6% | HOSP, rate of hospitalization ([2]; Unsegmented): 14.2% | HOSP, number of patients hospitalized ([2]; Unsegmented, Phases 1, 2 and/or 3, first event): 23 | Incidence of clinically significant weight gain compared to other drugs (schizophrenia patients [3]): higher incidence of clinically significant weight gain | Nonresponders (schizophrenia patients [4]; SULT4A1-1 Negative): 14 | Responders (schizophrenia patients [4]; SULT4A1-1 Negative): 3 | % Responders (schizophrenia patients [4]; SULT4A1-1 Positive): 42.9% | Nonresponders (schizophrenia patients [4]; SULT4A1-1 Positive): 4 | Responders (schizophrenia patients [4]; SULT4A1-1 Positive): 3 | Responders ([5]; SULT4A1-1 negative): 33.3% | Number of individuals with change in total PANSS ≦−20% (responders) ([5]; SULT4A1-1 negative): 15 | Number of individuals with change in total PANSS ≧−20% (non-responders) ([5]; SULT4A1-1 negative): 30 | Responders ([5]; SULT4A1-1 positive): 25% | Number of individuals with change in total PANSS ≦−20% (responders) ([5]; SULT4A1-1 positive): 1 | Number of individuals with change in total PANSS ≧−20% (non-responders) ([5]; SULT4A1-1 positive): 3 | Length of successful treatment (CGI Months), Mean (schizophrenia patients [6]; SULT4A1-1 negative): 5.44 Months | Length of successful treatment (CGI Months), Mean (schizophrenia patients [6]; SULT4A1-1 positive): 8.33^d Months | Length of successful treatment (CGI Months), Mean (schizophrenia patients [6]; Unsegmented): 6.10 Months
